Test results from DBAASP.
≈ marks a conversion by molar mass, not a printed value.

Legend:
Assay in all cases: ≥ marks a high value that may be exact or a test limit, other limits are often not marked, values filed in µg/mL are converted to µM
[1] = test system: Candida albicans ATCC 10231
[2] = test system: Cryptococcus neoformans ATCC 32264
Escherichia coli = test system: Escherichia coli
[3] = test system: Bifidobacterium longum subsp. infantis
Staphylococcus aureus = test system: Staphylococcus aureus
[4] = test system: Zymomonas mobilis ATCC 10988
[5] = test system: Escherichia coli DH5alpha
Bacillus subtilis DELTA = test system: Bacillus subtilis DELTA
[6] = test system: Acinetobacter baumannii ATCC 19606
[7] = test system: Staphylococcus aureus NBRC 13276
[8] = test system: Escherichia coli NBRC 3972
[9] = test system: Bacillus subtilis NBRC 3009
Acinetobacter baumannii = test system: Acinetobacter baumannii
[10] = test system: Klebsiella aerogenes ATCC 13048
[11] = test system: Acinetobacter baumannii ATCC 7978
[12] = test system: Staphylococcus aureus MW2
[13] = test system: Staphylococcus aureus ATCC 29231
[14] = test system: Klebsiella pneumoniae WGLW2
[15] = test system: Bacillus subtilis ATCC 6051
[16] = test system: Escherichia coli NEB5alpha

Compound C[C@H](N)C(=O)N[C@@H](CCC(N)=O)C(=O)N[C@@H](Cc1c[nH]c2ccccc12)C(=O)N[C@@H](CCCN=C(N)N)C(=O)N[C@@H](CCCN=C(N)N)C(=O)N[C@@H](Cc1c[nH]c2ccccc12)C(=O)N[C@@H](Cc1c[nH]c2ccccc12)C(=O)N[C@@H](CCC(N)=O)C(=O)N[C@@H](Cc1c[nH]c2ccccc12)C(=O)N[C@@H](CCCN=C(N)N)C(=O)N[C@@H](CCCN=C(N)N)C(N)=O [AQWRRWWQWRR] has an MIC [1] of 50 µM (≈ 85.7 µg/mL) and an MIC [2] of 25 µM (≈ 42.8 µg/mL).
Compound CSCC[C@H](NC(=O)[C@@H](N)CC(=O)O)C(=O)N[C@@H](CC(C)C)C(=O)N[C@H](C(=O)N[C@H](C(=O)N[C@@H](CC(=O)O)C(=O)N1CCC[C@H]1C(=O)N[C@@H](CCCCN)C(=O)O)C(C)C)C(C)C [DMLVVDPK] has an MIC (Escherichia coli) of 3270 µM (≈ 3000 µg/mL), an MIC [3] of no less than 3270 µM and an MIC (Staphylococcus aureus) of 3270 µM (≈ 3000 µg/mL).
In the case of CC[C@H](C)[C@H](NC(=O)[C@H](CCCN=C(N)N)NC(=O)[C@H](CCC(N)=O)NC(=O)[C@@H](NC(=O)[C@@H](NC(=O)[C@H](CCCN=C(N)N)NC(=O)[C@H](CCCCN)NC(=O)[C@H](Cc1ccccc1)NC(C)=O)[C@@H](C)CC)C(C)C)C(=O)N[C@@H](CCCN=C(N)N)C(=O)N[C@@H](CC(=O)O)C(=O)N[C@@H](Cc1ccccc1)C(=O)N[C@@H](CC(C)C)C(=O)N[C@@H](CCCN=C(N)N)C(N)=O [FKRIVQRIRDFLR], the MIC [4] was no less than 114 µM, the MIC [5] was no less than 57.2 µM and the MIC (Bacillus subtilis DELTA) was 22.9 µM (≈ 40.9 µg/mL).
Compound CC[C@H](C)[C@H](NC(=O)[C@H](CO)NC(=O)[C@H](Cc1ccccc1)NC(=O)[C@H](CC(C)C)NC(=O)[C@H](CO)NC(=O)CNC(=O)[C@H](CC(C)C)NC(=O)[C@@H](N)Cc1ccccc1)C(=O)NCC(=O)N[C@@H](CO)C(=O)N[C@@H](CCCCN)C(=O)N[C@@H](CC(C)C)C(=O)N[C@@H](CC(C)C)C(=O)N1CCC[C@H]1C(=O)NCC(=O)N[C@H](C(=O)N[C@H](C(=O)N[C@@H](CCCCN)C(=O)N[C@@H](CC(C)C)C(=O)N[C@@H](Cc1ccccc1)C(=O)N[C@@H](CCC(N)=O)C(=O)N[C@@H](CCCN=C(N)N)C(=O)N[C@@H](CCCCN)C(=O)N[C@@H](CCCCN)C(=O)N[C@@H](CCC(N)=O)C(N)=O)[C@@H](C)CC)C(C)C [FLGSLFSIGSKLLPGVIKLFQRKKQ] has an MIC [6] of 0.9 µM (≈ 2.52 µg/mL), an MIC [7] of 3.54 µM (≈ 9.92 µg/mL) and an MIC [8] of 10 µM (≈ 28 µg/mL). The MIC [9] was 0.707 µM (≈ 1.98 µg/mL) and the MIC (Acinetobacter baumannii) was 1.8 µM (≈ 5.05 µg/mL).
For CC[C@H](C)[C@H](NC(=O)[C@H](CCCCN)NC(=O)[C@H](Cc1c[nH]c2ccccc12)NC(=O)[C@@H](N)CC(C)C)C(=O)NCC(=O)N[C@@H](CCCCN)C(=O)N[C@@H](CCCCN)C(=O)N[C@H](C(=O)N[C@@H](Cc1c[nH]c2ccccc12)C(=O)N[C@@H](CCCN=C(N)N)C(=O)N[C@H](C(=O)NCC(=O)N[C@@H](Cc1c[nH]c2ccccc12)C(=O)N[C@@H](CC(N)=O)C(=O)N[C@@H](Cc1c[nH]c2ccccc12)C(=O)N[C@@H](CCCN=C(N)N)C(=O)O)C(C)C)[C@@H](C)CC [LWKIGKKIWRVGWNWR], the MIC [10] was no less than 60.2 µM, the MIC [11] was 7.25 µM (≈ 15.4 µg/mL) and the MIC [12] was 30.1 µM (≈ 64 µg/mL). For the same compound, the MIC [13] was 30.1 µM (≈ 64 µg/mL) and the MIC [14] was 30.1 µM (≈ 64 µg/mL).
CC(C)C[C@H](NC(=O)[C@H](C)NC(=O)[C@H](CC(=O)O)NC(=O)[C@H](CCC(=O)O)NC(=O)[C@H](CC(C)C)NC(=O)[C@H](Cc1ccccc1)NC(=O)[C@H](CC(=O)O)NC(=O)[C@@H](N)CCCN=C(N)N)C(=O)N[C@@H](CC(N)=O)C(=O)O [RDFLEDALN] gave an MIC [15] of no less than 500 µM and an MIC [16] of no less than 1000 µM.
